In US20200054653A1, “ACEFAPC FOR THE TREATMENT OF ACETYLCHOLINE-DEPENDENT DISEASES” (LIPTHER, priority 2017, published 2020):
Where two headings read alike, the source gives them in different places.

Assays:
[1] = system: reconstituted blood-brain barrier; conditions: compared with non-esterified DHA or PC-DHA; cited from earlier work
[2] = rat, cited from earlier work
[3] = molecular target: microbial (Streptomyces chromofuscus) phospholipase D (Streptomyces chromofuscus, UniProt Q8KRU5); assay: Acellular incubation of AceFaPC with phospholipase D, acetylcholine detected by mass spectrometry; type: biochemical; conditions: Tris-HCl pH 8, one hour at 37° C.
microbial (Streptomyces chromofuscus) phospholipase D, sequence (Q8KRU5 47-556): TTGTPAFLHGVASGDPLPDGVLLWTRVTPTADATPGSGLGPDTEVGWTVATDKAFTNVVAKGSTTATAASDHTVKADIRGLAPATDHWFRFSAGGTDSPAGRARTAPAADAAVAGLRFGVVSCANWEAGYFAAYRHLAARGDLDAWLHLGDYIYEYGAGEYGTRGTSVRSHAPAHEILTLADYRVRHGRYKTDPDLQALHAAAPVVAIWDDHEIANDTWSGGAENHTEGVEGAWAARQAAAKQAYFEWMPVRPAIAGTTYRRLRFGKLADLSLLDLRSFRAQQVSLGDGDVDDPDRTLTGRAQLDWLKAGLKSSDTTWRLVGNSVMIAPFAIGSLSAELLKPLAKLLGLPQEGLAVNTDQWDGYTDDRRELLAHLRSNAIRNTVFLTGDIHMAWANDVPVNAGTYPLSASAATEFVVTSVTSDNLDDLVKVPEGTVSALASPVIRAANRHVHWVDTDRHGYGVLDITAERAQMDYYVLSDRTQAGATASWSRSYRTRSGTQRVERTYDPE
Method: Acellular incubation of AceFaPC was performed in the presence of a microbial (Streptomyces chromofuscus) phospholipase D in a Tris-HCl pH 8 (brain pH) buffer for one hour at 37° C. Following incubation, phospholipase D was destroyed by adding ethanol. After centrifugation, the aqueous ethanolic mixture was separated and evaporated to dryness. The residue was dissolved in the mixture 95% acetonitrile/5% ammonium formate and then filtered by centrifugation. Acetylcholine was detected in the solution by mass spectrometry. Acetylcholine was detected on the basis of both its molecular mass (146) and that of its main fragmentation product (87: majority ion corresponding to the radical CH3—COO—CH2—CH2—) (FIG. 2).
In these acellular experiments, two substrates were used considering the lowest unsaturation for acyl in the sn-2 position, namely the oleoyl radical (R2—COO—, FIG. 1): AceOIPC and the highest with the docosahexaenoyl radical: AceDoPC®. For AceOIPC, approximately 5% of the released choline was converted to acetylcholine. For AceDoPC®, this conversion reached 36%. The reasons for this difference are unknown at this stage of the experiment. […]

[4] = system: brain lesions after ischemic stroke; conditions: injected into rats after ischemic stroke; cited from earlier work

SMILES | passage of a reconstituted blood-brain barrier [1] | radioactivity of AceDoPC in brain, % of the total injected ([2]; after 1 hour) | radioactivity of AceDoPC in brain, % of the total injected ([2]; after 24 hours) | radioactivity of AceDoPC in brain, % of the total injected ([2]; after 48 hours) | released choline converted to acetylcholine [3] | spread of brain lesions [4]
CC/C=C\C/C=C\C/C=C\C/C=C\C/C=C\C/C=C\CCC(=O)O[C@H](COC(C)=O)COP(=O)([O-])OCC[N+](C)(C)C [AceDoPC, 1-acetyl,2-docosahexaenoyl-phosphatidylcholine] | promoted | 80% | 30% | 10% | 36% | prevented the spread of brain lesions
CCCCCCCCC=CCCCCCCCC(=O)OC(COC(C)=O)COP(=O)([O-])OCC[N+](C)(C)C (stereo not shown) [AceOIPC] |  |  |  |  | approximately 5% | 
